In PubChem BioAssay AID1259408 (Genetic Toxicology Data Bank (GENE-TOX), 2018):
Active and inactive are the calls of the source. How the calls were made is not given here.

System: GENE-TOX genotoxicity assays, various organisms and cells
Assay: GENE-TOX mutagenicity studies
Conditions: for call: Assay Type: In vivo carcinogenicity studies, Assay Code: CCG-L
[1] = Species/Cell Type: Human lymphocytes, Assay Type: Sister-chromatid exchange (SCE) in vitro, Assay Code: SCL+, Evaluation Type: Evaluation B (Post-1980)
[2] = Species/Cell Type: Human, Assay Type: Sister-chromatid exchange (SCE) in vitro, Assay Code: SC1+, Evaluation Type: Evaluation B (Post-1980)
[3] = Species/Cell Type: Nonhuman, Assay Type: Sister-chromatid exchange (SCE) in vitro, Assay Code: SC2+D, Dose Response: With dose response, Evaluation Type: Evaluation B (Post-1980)
[4] = Species/Cell Type: Nonhuman, Assay Type: Sister-chromatid exchange (SCE) in vivo, Assay Code: SC3+D, Dose Response: With dose response, Evaluation Type: Evaluation B (Post-1980)
[5] = Species/Cell Type: Hordeum vulgare (barley), Assay Type: Chromosome aberrations, Assay Code: HOC+, Evaluation Type: Evaluation A (Pre-1980)
[6] = Species/Cell Type: Bacillus subtilis (H17 vs M45), Assay Type: Rec-assay, spot test, DNA effects (bacterial DNA repair), Assay Code: REWT, Evaluation Type: Evaluation A (Pre-1980)
[7] = Species/Cell Type: Bacillus subtilis (H17 vs M45T), Assay Type: Rec-assay, spot test, DNA effects (bacterial DNA repair), Assay Code: REXT, Evaluation Type: Evaluation A (Pre-1980)
[8] = Species/Cell Type: Salmonella typhimurium (one or more of the five standard strains: TA98, TA100, TA1535, TA1537, and TA1538), Assay Type: Histidine reverse gene mutation, Ames assay, Assay Code: SAL-, Evaluation Type: Evaluation A (Pre-1980)
[9] = Species/Cell Type: Salmonella typhimurium (one or more of the five standard strains: TA98, TA100, TA1535, TA1537, and TA1538), Assay Type: Histidine reverse gene mutation, Ames assay, Assay Code: SAL+, Evaluation Type: Evaluation A (Pre-1980)
[10] = Species/Cell Type: Salmonella typhimurium (one or more of the five standard strains: TA98, TA100, TA1535, TA1537, and TA1538), Assay Type: Histidine reverse gene mutation, Ames assay, Assay Code: SALT, Evaluation Type: Evaluation A (Pre-1980)
[11] = Species/Cell Type: Human, Assay Type: Sister-chromatid exchange (SCE) in vitro, Assay Code: SC1T, Evaluation Type: Evaluation B (Post-1980)
[12] = Species/Cell Type: Salmonella typhimurium (one or more of the five standard strains: TA98, TA100, TA1535, TA1537, and TA1538), Assay Type: Histidine reverse gene mutation, Ames assay, Assay Code: SAL+*, Activation: With metabolic activation, Evaluation Type: Evaluation A (Pre-1980)
[13] = Species/Cell Type: Mammalian polychromatic erythrocytes, Assay Type: Micronucleus test, chromosome aberrations, Assay Code: MNT+, Evaluation Type: Evaluation B (Post-1980)
[14] = Species/Cell Type: Human lymphocytes, Assay Type: Sister-chromatid exchange (SCE) in vitro, Assay Code: SCL+D, Dose Response: With dose response, Evaluation Type: Evaluation B (Post-1980)
[15] = Species/Cell Type: Human, Assay Type: Sister-chromatid exchange (SCE) in vitro, Assay Code: SC1+D, Dose Response: With dose response, Evaluation Type: Evaluation B (Post-1980)
[16] = Species/Cell Type: Nonhuman, Evaluation Type: Evaluation A (Pre-1980)
[17] = Species/Cell Type: Mammalian polychromatic erythrocytes, Assay Type: Micronucleus test, chromosome aberrations, Assay Code: MNTT, Evaluation Type: Evaluation B (Post-1980)

SMILES: C=COC(N)=O
- mutagenic call [1]: active; positive
- mutagenic call [2]: active; positive
- mutagenic call [3]: active; positive
- mutagenic call [4]: active; positive

SMILES: CCOC(=O)CC(SP(=S)(OC)OC)C(=O)OCC (stereo unspecified) (tested in a mixture with another compound)
- mutagenic call [5]: active; positive

SMILES: O=S(=O)(O)c1ccc(N=Nc2ccc(O)c3ccccc23)cc1
- mutagenic call [6]: no conclusion
- mutagenic call [7]: no conclusion
- mutagenic call [8]: inactive; negative

SMILES: OCc1c2ccccc2cc2c1ccc1ccccc12
- mutagenic call (Species/Cell Type: Mouse prostate cells, Assay Type: Cell transformation, Assay Code: CTM+, Evaluation Type: Evaluation A (Pre-1980)): active; positive

SMILES: CC1=CC2=C(C=O)C(=O)[C@](C)(O)[C@@H](O)C2=CO1
- mutagenic call [9]: active; positive

SMILES: CNC1(c2ccccc2Cl)CCCCC1=O (stereo unspecified)
- mutagenic call [10]: no conclusion

SMILES: O=C(O)c1c(Cl)c(Cl)c(Cl)c(Cl)c1-c1c2cc(I)c(=O)c(I)c-2oc2c(I)c(O)c(I)cc12
- mutagenic call [6]: no conclusion
- mutagenic call [7]: no conclusion
- mutagenic call [11]: no conclusion
- mutagenic call (Species/Cell Type: Nonhuman, Assay Type: Sister-chromatid exchange (SCE) in vitro, Assay Code: SC2T, Evaluation Type: Evaluation B (Post-1980)): no conclusion
- mutagenic call (Species/Cell Type: Saccharomyces cerevisiae, Assay Type: Mitotic recombination or gene conversion, Assay Code: YEC-, Evaluation Type: Evaluation A (Pre-1980)): inactive; negative

SMILES: Nc1c(F)cc(-c2cc(F)c(N)c(F)c2)cc1F
- mutagenic call (Species/Cell Type: Human diploid fibroblasts, Assay Type: Unscheduled DNA synthesis (UDS) in vitro, DNA effects, Assay Code: UDH+*, Activation: With metabolic activation, Evaluation Type: Evaluation A (Pre-1980)): active; positive
- mutagenic call [12]: active; positive

SMILES: Cc1ccc(C2CO2)cc1 (stereo unspecified)
- mutagenic call (Species/Cell Type: Escherichia coli WP2 UVRA, Assay Type: Tryptophan reverse gene mutation, Assay Code: WPU+D, Dose Response: With dose response, Evaluation Type: Evaluation A (Pre-1980)): active; positive
- mutagenic call [1]: active; positive
- mutagenic call [2]: active; positive
- mutagenic call [9]: active; positive

SMILES: COc1cc2c(c(O)c1OC)C13CCC(OC)CC1N(CC3)C2 (stereo unspecified)
- mutagenic call [13]: active; positive

SMILES: Cc1c(C(=O)O)c(O)cc2c1C(=O)c1c(O)c([C@@H]3O[C@@H](CO)[C@H](O)[C@@H](O)[C@H]3O)c(O)c(O)c1C2=O
- mutagenic call [6]: no conclusion
- mutagenic call [7]: no conclusion

SMILES: CC(C)(C)N(CCCC(=O)O)N=O
- mutagenic call [10]: no conclusion

SMILES: COCCOC(=O)c1ccccc1C(=O)OCCOC
- mutagenic call (Species/Cell Type: Rodents, Sex: Male, Assay Type: Dominant lethal test, Assay Code: DLTT, Evaluation Type: Evaluation A (Pre-1980)): no conclusion

SMILES: COc1ccc(Cn2ccnc2/C=C/c2ccc([N+](=O)[O-])o2)cc1
- mutagenic call (Species/Cell Type: Neurospora crassa, Assay Type: Reverse gene mutation, Assay Code: NER+, Evaluation Type: Evaluation A (Pre-1980)): active; positive

SMILES: CCCNC(=O)NS(=O)(=O)c1ccc(Cl)cc1
- mutagenic call (Species/Cell Type: Human lymphocytes, Assay Type: Sister-chromatid exchange (SCE) in vivo, Assay Code: SCY+, Evaluation Type: Evaluation B (Post-1980)): active; positive
- mutagenic call (Species/Cell Type: Mammalian polychromatic erythrocytes, Assay Type: Micronucleus test, chromosome aberrations, Assay Code: MNT+, Evaluation Type: Evaluation A (Pre-1980)): active; positive
- mutagenic call (Species/Cell Type: Nonhuman, Assay Type: Sister-chromatid exchange (SCE) in vitro, Assay Code: SC2+D, Dose Response: With dose response, Evaluation Type: Evaluation A (Pre-1980)): active; positive
- mutagenic call [4]: active; positive

SMILES: Cn1ccc(CO)c1CO
- mutagenic call [14]: active; positive

SMILES: CCN(CC)Cc1cc(Br)ccc1OCC(=O)N/N=C\c1ccccc1
- mutagenic call (Species/Cell Type: Saccharomyces cerevisiae, Assay Type: Reverse gene mutation, Assay Code: YERT, Evaluation Type: Evaluation A (Pre-1980)): no conclusion

SMILES: O=NN1CCCNC1=O
- mutagenic call [9]: active; positive

SMILES: NP(=S)(N1CC1)N1CC1
- mutagenic call [14]: active; positive
- mutagenic call [15]: active; positive
- mutagenic call [3]: active; positive

SMILES: COC(=O)COc1ccc(Cl)cc1C
- mutagenic call (Species/Cell Type: Saccharomyces cerevisiae, Assay Type: Reverse gene mutation, Assay Code: YER+, Evaluation Type: Evaluation A (Pre-1980)): active; positive

SMILES: CCCCOCCOCCOCc1cc2c(cc1CCC)OCO2
- call [16]: inactive; negative

SMILES: O=C(O)c1ccccc1C(=O)Nc1cccc2ccccc12
- mutagenic call [5]: active; positive
- mutagenic call (Species/Cell Type: Vicia faba, Assay Type: Chromosome aberrations, Assay Code: VIC+, Evaluation Type: Evaluation A (Pre-1980)): active; positive

SMILES: O=c1ccc(=O)[nH][nH]1
- mutagenic call (Species/Cell Type: Allium cepa, Assay Type: Chromosome aberrations, Assay Code: ALC+, Evaluation Type: Evaluation A (Pre-1980)): active; positive
- mutagenic call (Species/Cell Type: Arabidopsis species, Assay Type: Gene mutation, Assay Code: ARM-, Evaluation Type: Evaluation A (Pre-1980)): inactive; negative
- mutagenic call (Species/Cell Type: Drosophila melanogaster, Assay Type: Sex-linked recessive lethal gene mutation, Assay Code: SRL+, Evaluation Type: Evaluation A (Pre-1980)): active; positive
- mutagenic call [5]: active; positive
- mutagenic call [14]: active; positive
- mutagenic call [15]: active; positive
- mutagenic call (Species/Cell Type: Mammalian polychromatic erythrocytes, Assay Type: Micronucleus test, chromosome aberrations, Assay Code: MNTT, Evaluation Type: Evaluation A (Pre-1980)): no conclusion
- mutagenic call (Species/Cell Type: Neurospora crassa, Assay Type: Aneuploidy, chromosome aberrations, Assay Code: NEN-, Evaluation Type: Evaluation A (Pre-1980)): inactive; negative
- call [16]: inactive; negative
- mutagenic call [3]: active; positive
- mutagenic call (Species/Cell Type: Nonhuman, Assay Type: Sister-chromatid exchange (SCE) in vitro, Assay Code: SC2-, Evaluation Type: Evaluation A (Pre-1980)): inactive; negative
- mutagenic call [8]: inactive; negative
- mutagenic call (Species/Cell Type: Vicia faba, Assay Type: Chromosome aberrations, Assay Code: VIC+D, Dose Response: With dose response, Evaluation Type: Evaluation A (Pre-1980)): active; positive

SMILES: CC(=O)NNC(C)=O
- mutagenic call [17]: no conclusion

SMILES: CC(O)c1ccccc1 (stereo unspecified)
- mutagenic call (Species/Cell Type: Escherichia coli polA (W3119 vs P3478), Assay Type: Rec-assay, DNA effects (bacterial DNA repair), Assay Code: RE1T, Evaluation Type: Evaluation A (Pre-1980)): no conclusion

SMILES: NNCCc1ccccc1
- mutagenic call (Species/Cell Type: Human, Sex: Male, Assay Type: Sperm morphology, Assay Code: SPHT, Evaluation Type: Evaluation A (Pre-1980)): no conclusion
- mutagenic call (Species/Cell Type: Nonhuman, Assay Type: Sister-chromatid exchange (SCE) in vivo, Assay Code: SC3+, Evaluation Type: Evaluation B (Post-1980)): active; positive

SMILES: ClCC1OC(CCl)OC(CCl)O1 (stereo unspecified)
- mutagenic call [9]: active; positive

SMILES: Cc1c(C)c2c(c(C)c1O)CCC(C)(CCCC(C)CCCC(C)CCCC(C)C)O2 (stereo unspecified)
- mutagenic call (Species/Cell Type: Human lymphocytes, Assay Type: Sister-chromatid exchange (SCE) in vitro, Assay Code: SCLT, Evaluation Type: Evaluation B (Post-1980)): no conclusion
- mutagenic call [11]: no conclusion

SMILES: ClCc1ccccn1
- call [16]: inactive; negative

SMILES: Cc1ccc(N)c(N)c1
- mutagenic call [13]: active; positive

SMILES: CCC(C)c1ccccc1OC(=O)N(C)N=O (stereo unspecified)
- mutagenic call (Species/Cell Type: Bacillus subtilis (H17 vs M45T), Assay Type: Rec-assay, spot test, DNA effects (bacterial DNA repair), Assay Code: REX+, Evaluation Type: Evaluation A (Pre-1980)): active; positive
- mutagenic call (Species/Cell Type: Escherichia coli WP2, Assay Type: Tryptophan reverse gene mutation, Assay Code: WP2+, Evaluation Type: Evaluation A (Pre-1980)): active; positive

SMILES: COc1cc2c(c3ccc4ccccc4c13)CC=C2C
- mutagenic call [12]: active; positive

SMILES: Cc1ccc(C)cc1
- mutagenic call [17]: no conclusion

SMILES: CC(=O)O/C=C/Cc1ccc2c(c1)OCO2
- mutagenic call (Species/Cell Type: Human diploid fibroblasts, Assay Type: Unscheduled DNA synthesis (UDS) in vitro, DNA effects, Assay Code: UDH+, Evaluation Type: Evaluation A (Pre-1980)): active; positive

SMILES: Clc1ccc(C(c2ccccc2Cl)C(Cl)Cl)cc1 (stereo unspecified)
- mutagenic call (Species/Cell Type: Nonhuman, Assay Type: Chromosome aberrations in vitro, Assay Code: CY&+, Evaluation Type: Evaluation A (Pre-1980)): active; positive

SMILES: Oc1cc(O)c2ccccc2c1
- mutagenic call (Species/Cell Type: Allium cepa, Assay Type: Chromosome aberrations, Assay Code: ALCT, Evaluation Type: Evaluation A (Pre-1980)): no conclusion
